Assay results as given in US20250123282A1, “METHODS FOR EVALUATION AND TREATMENT OF TYROSINE KINASE INHIBITOR (TKI)-RESISTANT ACUTE MYELOID LEUKEMIA” (LOMA LINDA UNIVERSITY, priority 2021, published 2025).

Tests used:
primary AML BMMNC = assay: Human cytokine proteome profile array of cell-free supernatants from treated primary AML BMMNC; format: cell-based; conditions: 80 nM GILT, 3 days ex vivo, Patient #1 and #2, vs non-treated control
Procedure: To identify the protein(s) responsible for initiation of the survival mechanism and subsequent proliferation of AML blasts, human cytokine proteome profile arrays of cell-free supernatants from GILT-treated MV4-11's cultures were performed. […] Under the no treatment (No Tx) condition, MV4-11 releases numerous cytokines such as MIF in their supernatant; however, one dose of GILT-treatment eliminated release of a variety of cytokines such as osteopontin (arrows, FIG. 7A), a protein closely associated with adverse prognosis in AML patients. Next, bone marrow mononuclear cells (BMMNC) from AML patients were treated for 3 days ex vivo.
Human Samples. AML bone marrow (BM) mononuclear cells (BMMNC) (Patients #1-7, Table 4) were obtained from the City of Hope National Medical Center (COHNMC). All donor patients signed an informed consent form. Sample acquisition was approved by the Institutional Review Boards at the LLUMC and the COHNMC in accordance with an assurance filed with and approved by the Department of Health and Human Services, and it met all requirements of the Declaration of Helsinki.
For MIF in vitro experiments, different doses of MIF were added to 1 ml of 1×10^6 MV4-11 cells or RAW264.7 cells for each experimental group in 24-well plates. Two days after the one dose treatment, cells were then collected for either analyses by FACS and qPCR. […]

MV4-11 = assay: GILT-based combinatory treatments for MV4-11 in vitro (synergy, relapse, FACS, imaging); format: cell-based, human
Text: FLT3, the most frequently mutated gene in AML patients, is often associated with poorer overall survival with an increased risk of relapse. However, the anti-leukemic effects of the latest FLT3 inhibitors as monotherapy or in combination with standard treatments are constrained by a short duration of response and a high rate of relapse. Accordingly, whether targeting the compensation pathways along with administration of FLT3 inhibitors, e.g., GILT, prevents relapse. A list of the in vitro trials of GILT in combination with inhibitors (commercially available) targeting new pathways on MV4-11 is provided in Table 1. […]
Flow Cytometry (FACS). […] About 1×10^4˜10^6 cells in 100 μl FACS buffer (PBS containing 1% FBS and 0.05% sodium azide) were stained with various fluorescence-conjugated antibodies specific for the desired cell surface proteins at 4° C. for 30 min. The surface-stained cells were then fixed and permeabilized using the appropriate reagents (e.g. the BD Pharmingen Cytofix/Cytoperm buffer) and stained with different fluorescence-conjugated antibodies specific for the desired intracellular proteins at 4° C. for 2 hours in the permeabilizing buffer (e.g. the BD Perm/Wash buffer). […] Finally, the cells were washed twice in the permeabilizing buffer and twice in the FACS buffer before being analyzed on the BD FACSAria II. […]

MV4-11 blasts = assay: GILT combined with MIF inhibitor or CXCR2 inhibitor on MV4-11 blasts in vitro (FACS); format: cell-based, human; conditions: 80 nM GILT, 50 uM SB225002, 3 days
Procedure: Whether targeting the MIF-CXCR2 signaling pathway would effectively treat AML blasts were investigated. First, the combination of GILT with ribosomal protein S19 (RPS19) on MV4-11 blasts was tested in vitro. RPS19, a MIF inhibitor, has been reported to suppress cisplatin-activated MIF-CD74-NFκB signaling pathway in acute kidney injury. […] The combination of 80 nM GILT with 50 uM SB225002, a CXCR2-inhibitor (CXCR2-I) on MV4-11 blasts in vitro were examined. […] The anti-leukemic effect of combining GILT with CXCR2-I on primary BMMNC ex vivo were examined. […] There may be alternative cytokine pathways compensating for the defect of MIF-CXCR2 pathways.
For MIF in vitro experiments, different doses of MIF were added to 1 ml of 1×10^6 MV4-11 cells or RAW264.7 cells for each experimental group in 24-well plates. Two days after the one dose treatment, cells were then collected for either analyses by FACS and qPCR. As combination agents to treat blasts in vitro or ex vivo, one dose of 80 nM GILT with one dose of different inhibitors were added to 1 ml of 1×10^6 MV4-11 cells or 1 ml of 0.5-1×10^6 primary AML BMMNC for each experimental group in 24-well plates. Dose-dependent experiments of CXCR2 inhibitor and NFκB inhibitor with or without 80 nM GILT were performed. […] Three days after the one dose treatment, cells were then collected for either analyses by FACS and qPCR.
Flow Cytometry (FACS). Cells were harvested and examined for the expression of cell surface biomarkers (CD) and intracellular proteins by multichromatic FACS as previously described. About 1×10^4˜10^6 cells in 100 μl FACS buffer (PBS containing 1% FBS and 0.05% sodium azide) were stained with various fluorescence-conjugated antibodies specific for the desired cell surface proteins at 4° C. for 30 min. The surface-stained cells were then fixed and permeabilized using the appropriate reagents (e.g. the BD Pharmingen Cytofix/Cytoperm buffer) and stained with different fluorescence-conjugated antibodies specific for the desired intracellular proteins at 4° C. for 2 hours in the permeabilizing buffer (e.g. the BD Perm/Wash buffer). Concentrations of the Abs were used per the manufacturers' recommendations. Finally, the cells were washed twice in the permeabilizing buffer and twice in the FACS buffer before being analyzed on the BD FACSAria II. Data was analyzed using the FlowJo software (Tree Star Inc., Ashland, OR).

## CCc1nc(C(N)=O)c(Nc2ccc(N3CCC(N4CCN(C)CC4)CC3)c(OC)c2)nc1NC1CCOCC1 [GILT, Gilteritinib]
Primary AML BMMNC
  MIF release increase in the supernatant: 2.1 fold
MV4-11; MV4-11, 3 days after combination treatment
  population of viable blasts (FACS): 26.9%
MV4-11; MV4-11, 7 days after combination treatment
  viable Ki67+CD33+CD44+ cells (cell number count): 180 cells
MV4-11 blasts
  percentage of viable CD44+ MV4-11 blasts: 12.2%
MV4-11 blasts; MV4-11
  percentage of Ki67+CD44+ blasts: 12.2%
